Reference: PubChem BioAssay (NCI)
In brackets after ≈: the same amount, converted by molar mass. Several values for one entry are separate records, joined by “and”; a condition that tells them apart may be missing. Equal entries are not always repeated.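 A five-concentration, 48-hour dose response in 96-well plates underlies each endpoint, interpolated linearly between surrounding concentrations. Here, GI50 denotes the concentration required for 50% inhibition of growth. TGI: concentration producing complete growth inhibition.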

Tests used:
Test in all cases: NCI tumour cell line growth inhibition, 48 h
HCT-116 colon = system: HCT-116 colon
HCT-15 colon = system: HCT-15 colon
HS 578T breast = system: HS 578T breast
LOX IMVI melanoma = system: LOX IMVI melanoma
MALME-3M melanoma = system: MALME-3M melanoma
OVCAR-3 ovarian = system: OVCAR-3 ovarian
RPMI-8226 leukemia = system: RPMI-8226 leukemia
RXF 393 renal = system: RXF 393 renal
SF-295 CNS = system: SF-295 CNS
SW-620 colon = system: SW-620 colon

SMILES | GI50 (HCT-116 colon) | TGI (HCT-116 colon) | GI50 (HCT-15 colon) | TGI (HCT-15 colon) | GI50 (HS 578T breast) | TGI (HS 578T breast) | GI50 (LOX IMVI melanoma) | TGI (LOX IMVI melanoma) | GI50 (MALME-3M melanoma) | TGI (MALME-3M melanoma) | GI50 (OVCAR-3 ovarian) | TGI (OVCAR-3 ovarian) | GI50 (RPMI-8226 leukemia) | TGI (RPMI-8226 leukemia) | GI50 (RXF 393 renal) | TGI (RXF 393 renal) | GI50 (SF-295 CNS) | TGI (SF-295 CNS) | GI50 (SW-620 colon) | TGI (SW-620 colon)
CC1(C)CC(=O)C2=C(C1)NC(SSC1=C(C#N)C(c3ccc(F)cc3)C3=C(CC(C)(C)CC3=O)N1)=C(C#N)C2c1ccc(F)cc1 (stereo unspecified) | 26.5 mg/L | 47.3 mg/L | 30.3 mg/L (≈ 46.3 µM) | 64 mg/L | 76.9 mg/L (≈ 117 µM) | > 150 mg/L | 30.5 mg/L (≈ 46.5 µM) | 63.3 mg/L | 31.8 mg/L | 56.6 mg/L | 25.6 mg/L | 46.1 mg/L | 50.5 mg/L (≈ 77.1 µM) | 118 mg/L | 21.4 mg/L (≈ 32.7 µM) | 41.1 mg/L | 150 mg/L (≈ 229 µM) | > 150 mg/L | 6.93 mg/L (≈ 10.6 µM) | 25 mg/L
O=C(O)C(CSC(c1ccccc1)(c1ccccc1)c1ccccc1)N=Cc1cccs1 (stereo unspecified) |  | > 56.2 µM |  | > 100 µM |  | > 34.2 µM |  | > 59.8 µM |  | > 69.5 µM |  | 19.1 µM |  | > 100 µM |  | > 19.6 µM |  | > 100 µM |  | > 100 µM
O=C(CCN1CC2CCC(CC2)C1)c1cccs1 |  | 42 µM |  | 44.1 µM |  | 71.9 µM |  | 27.7 µM |  | 39.3 µM |  | 58 µM |  | 12.4 µM |  | 37 µM |  | > 100 µM |  | 12.2 µM
CCOC(=O)/C(=C\NCC(OCC)OCC)c1nc2ccccc2[nH]1 |  | > 100 µM |  | 51.8 µM |  | > 100 µM |  | 55.4 µM |  | 61.5 µM |  | 61.9 µM |  | 39.5 µM |  | > 100 µM |  | > 100 µM |  | > 100 µM
CCOC(=O)C1CCn2c(nc3c2c(=O)n(C)c(=O)n3C)S1 (stereo unspecified) |  | > 100 µM |  | > 100 µM |  |  |  | > 100 µM |  | > 100 µM |  | > 100 µM |  | > 100 µM |  | > 100 µM |  | > 100 µM |  | > 100 µM
O=CN1CCN(C(=O)c2cc(Cl)cc(Cl)c2)C1=S |  | 32.7 µM |  | 35.2 µM |  | 71.4 µM |  | 22.3 µM |  | 20.7 µM |  | 27.9 µM |  | 5.64 µM |  | 30.6 µM |  | 36 µM |  | 49.3 µM
CC1=C2C(=O)OCC23C=COC3(C)O1 (stereo unspecified) |  | > 100 µM |  | > 100 µM |  | > 100 µM |  | > 100 µM |  | 74.5 µM |  | 97.1 µM |  | > 100 µM |  | > 100 µM |  | > 100 µM |  | > 100 µM
O=[N+]([O-])c1ccc2c(c1)c(N=NC(=S)NC1CCCCC1)c(O)n2CN1CCOCC1 |  | 16.2 µM |  | 15.6 µM |  | 45.8 µM |  | 19.3 µM |  | 24.4 µM |  | 20.4 µM |  | 52.6 µM |  | 29 µM |  | 16.6 µM |  | > 100 µM
CS(=O)(=O)c1nc(-c2cc3c(c(S(C)(=O)=O)n2)CCCC3)cc2c1CCCC2 |  | > 100 µM |  | > 100 µM |  | > 33 µM |  | > 100 µM |  | > 100 µM |  | > 100 µM |  | > 100 µM |  | > 74.9 µM |  | > 93.9 µM |  | > 100 µM
C/C(=N\NC(=O)c1cccnc1)c1cccc(/C(C)=N/NC(=O)c2cccnc2)n1 | 4.24 µM | > 100 µM |  | > 100 µM |  |  |  | > 100 µM | 2.6 µM | 9.81 µM | 2.05 µM | 47.3 µM |  |  |  |  |  | 20.5 µM |  | > 100 µM
C=C1C[C@@H](O)[C@@H](Br)C(C)(C)[C@]12CCC(C)(Cl)C(Br)C2 (stereo partly specified) |  | > 100 µM |  | > 100 µM |  | > 100 µM |  | 49.5 µM |  | 59.4 µM |  | 37.4 µM |  | > 100 µM |  | > 76.1 µM |  | > 85.3 µM |  | > 100 µM
Nc1ccccc1N/C(=C\C(=O)C(Cl)(Cl)Cl)c1ccccc1 |  | 38.2 µM |  | 80.4 µM |  | > 100 µM |  | 35.6 µM |  | 37.7 µM |  | 65.2 µM |  | 86 µM |  | 53.4 µM |  | > 100 µM |  | > 100 µM
COc1ccc(N=C2C(=O)C3=C(OC(C)(C)CC3)c3ccccc32)cc1 |  | 1.48 µM |  | 10.8 µM |  | 48.8 µM |  | 10.3 µM |  | 1.59 µM |  | 1.5 µM |  |  |  | 2.43 µM |  | 1.56 µM |  | 1.56 µM
Clc1ccc(Nc2nc(Cl)c3[nH]cnc3n2)cc1Cl |  | 86.7 µM |  | 87.5 µM |  | 56.3 µM |  | 34.1 µM |  | > 100 µM |  | 61 µM |  | 83 µM |  | 81.2 µM |  | 79.7 µM |  | > 100 µM
[O-][N+](CCO)(CCO)c1ncnc2nc[nH]c12 |  | > 100 µM |  | > 100 µM |  | > 100 µM |  | > 100 µM |  | > 100 µM |  | > 100 µM |  | > 100 µM |  | > 100 µM |  | > 100 µM |  | > 100 µM
CC[C@@]1(O)C(=O)OCc2c1cc1n(c2=O)Cc2c-1nc1ccc(O)cc1c2CC[Si](C)(C)C |  |  |  | 95 µM |  |  |  | 0.114 µM |  | 1.41 µM |  | 0.127 µM |  | 0.348 µM |  | 0.0494 µM and 0.0625 µM |  | 0.0296 µM |  | > 100 µM
O=S1(=O)OC(c2ccc(O)cc2)(c2ccc(O)cc2)c2ccccc21 |  | > 100 µM |  | > 100 µM |  | > 100 µM |  | > 100 µM |  | > 100 µM |  | > 100 µM |  | > 100 µM |  | > 100 µM |  | > 100 µM |  | > 100 µM
